Molecules are shown by their SMILES.

What all share (format): cell-based
Assay [1] addresses T1, TRAAK channel (Mus musculus, UniProt O88454).
T1 construct: an open reading phase of 1197 nucleotides coding for a polypeptide of 398 residues; expressed in transfected cells; host or cells: COS cells (transient)
T1 sequence (O88454 1-398): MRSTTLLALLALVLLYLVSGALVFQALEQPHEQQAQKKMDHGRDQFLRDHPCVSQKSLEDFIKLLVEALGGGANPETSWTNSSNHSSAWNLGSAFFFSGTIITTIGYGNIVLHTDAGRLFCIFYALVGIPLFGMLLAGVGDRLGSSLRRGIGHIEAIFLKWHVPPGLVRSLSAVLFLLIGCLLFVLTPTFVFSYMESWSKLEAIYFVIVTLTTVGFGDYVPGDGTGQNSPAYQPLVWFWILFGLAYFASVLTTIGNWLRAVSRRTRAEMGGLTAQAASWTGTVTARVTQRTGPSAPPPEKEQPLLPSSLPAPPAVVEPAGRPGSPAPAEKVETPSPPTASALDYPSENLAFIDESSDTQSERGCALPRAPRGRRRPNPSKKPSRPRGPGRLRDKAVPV
Description: TRAAK currents in Xenopus oocytes injected with TRAAK cRNA, imposed voltage technique. The protocol:
In (a): the oocytes were maintained at a potential of −80 mV then the currents were recorded following potential jumps from −150 to +50 mV by increments of 20 mV. The recordings were performed in an external medium containing a K^+ concentration of 2 mM or 74 mM. In (b): current-potential relation was according to the same experimental set-up as in (a). In (c): potential reversal (Erev) of the TRAAK currents were a function of the external K^+ concentration. In (d): currents recorded on COS cells transfected by TRAAK according to the same protocol as in (a). In (e): current-potential relation was according to the same experimental set-up as in (d).
(§1) For the functional study, the coding sequence of TRAAK was inserted in the vector pEXO and a complementary RNA (cRNA) was synthesized from this construction and injected in Xenopus oocytes. For expression in the COS cells, the TRAAK sequence was subcloned in an expression vector under the control of a eukaryote promoter and transfected into the cells. An absent non-inactivating current from the oocytes and the control cells was measured by the imposed voltage technique as represented in FIG. 4. The activation was instantaneous and could not be resolved because it was masked by the capacitive discharge of the current recorded at the beginning of the potential jump. The current-potential relation rectified in the outgoing direction when the external K^+ concentration was equal to 2 mM. Incoming currents were observed when the external K^+ concentration was increased. At all concentrations, the current-potential curves followed the Goldman-Hodgkin-Katz relation. […] The TRAAK channel is selective for potassium. Reversal of the current potential follows the equilibrium potential of K^+ and changing the concentration of K^+ by 10 leads to a change in the potential inversion value conforming to the value predicted by Nernst's equation (48.7±0.7 mV times 10, n=4).

For another assay, the system named is control cells (CD8). Description: Application of AA on control cells (CD8).
Assay [2] addresses T2, TREK-1 channel (Mus musculus, UniProt P97438).
T2 construct: expressed in transfected cells; host or cells: COS cells
T2 sequence (P97438 with tags, fused parts or gaps isoform P97438-2 T63A/R366M): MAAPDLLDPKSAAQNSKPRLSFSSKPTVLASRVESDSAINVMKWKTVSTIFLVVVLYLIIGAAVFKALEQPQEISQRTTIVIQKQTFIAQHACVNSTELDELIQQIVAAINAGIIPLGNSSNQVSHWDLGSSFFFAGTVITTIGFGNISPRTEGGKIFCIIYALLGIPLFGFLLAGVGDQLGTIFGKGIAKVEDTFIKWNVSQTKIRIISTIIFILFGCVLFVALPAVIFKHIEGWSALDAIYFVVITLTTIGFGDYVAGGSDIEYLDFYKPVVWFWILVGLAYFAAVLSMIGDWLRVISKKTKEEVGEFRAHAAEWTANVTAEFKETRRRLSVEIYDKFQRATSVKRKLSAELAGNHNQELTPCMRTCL
The assay can be described thus: TREK-1 currents in transfected COS cells, patch recording. As to conditions: AA 10 μM applied in the external medium, transfected COS cells. How it is done: (§2) In FIG. 8a: the activity of TREK-1 was recorded in the attached cell configuration. The patch was stimulated by a potential ramp lasting 800 msec every 5 seconds. The currents were measured at 80 mV. The applications of arachidonic acid (AA, 10 μM) are indicated by the horizontal bars. During the experiment, the patch was stimulated by tensions of 50 mmHg (indicated by the arrows). At 9 minutes, the patch was excised in the inside-out configuration. In FIG. 8b: current-potential relations corresponding to the experiment illustrated in FIG. 8a is shown. In FIG. 8c: activity of TREK-1 in the attached cell configuration with 10 μM AA in the pipette can be seen. The potential ramp lasted 800 msec and the currents were measured at 80 mV. In FIG. 8d: single-channel current-potential relations at the moment at which the pipette was placed on the membrane or after 20 minutes and 1 minute after the patch was excised in the inside-out configuration. […] The current was measured at 80 mV. In FIG. 8f: AA had no effect on the TREK-1 current measured in the intact cell when it was in the pipette. The current was measured 30 minutes after the patch was broken (control tracing) by a potential ramp of 800 msec. The current was then measured after an application of AA of 1 minute in the external medium (AA tracing).
(§3) FIGS. 10a and b are graphs showing the effect of riluzole on the TREK-1 and TRAAK […] currents. The current-potential relations were obtained as in FIG. 9a above and after application ofriluzole (100 μM) on the transfected COS cells.

Assay [3] has as its target T3, TREK-1 channel (Mus musculus, UniProt P97438, R381M/T78A).
T3 construct: expressed in transfected cells; host or cells: COS cells
T3 sequence (P97438 with tags, fused parts or gaps isoform P97438-2 T63A/R366M): T2 sequence (P97438 with tags, fused parts or gaps isoform P97438-2 T63A/R366M)
The description is as above. The protocol: as §2, §3

Another assay concerns the target T4, TWIK-1 channel (Homo sapiens, UniProt O00180).
T4 construct: expressed in transfected cells; host or cells: COS cells (transient)
T4 sequence (O00180 1-336): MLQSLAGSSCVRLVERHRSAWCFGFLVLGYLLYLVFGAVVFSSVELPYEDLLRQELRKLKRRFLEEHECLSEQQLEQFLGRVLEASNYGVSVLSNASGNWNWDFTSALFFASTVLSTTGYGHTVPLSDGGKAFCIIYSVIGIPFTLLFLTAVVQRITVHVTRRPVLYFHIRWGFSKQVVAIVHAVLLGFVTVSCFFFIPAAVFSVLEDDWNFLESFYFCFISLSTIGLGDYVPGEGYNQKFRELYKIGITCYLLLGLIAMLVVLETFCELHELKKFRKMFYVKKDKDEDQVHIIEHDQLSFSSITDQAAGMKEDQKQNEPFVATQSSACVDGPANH
Description: TWIK-1 currents in transfected COS cells before and after AA. As to conditions: intact cell configuration.

In the next assay the target is T5, TASK channel (Homo sapiens, UniProt O14649).
T5 construct: expressed in transfected cells; host or cells: COS cells (transient)
T5 sequence (O14649 whole entry): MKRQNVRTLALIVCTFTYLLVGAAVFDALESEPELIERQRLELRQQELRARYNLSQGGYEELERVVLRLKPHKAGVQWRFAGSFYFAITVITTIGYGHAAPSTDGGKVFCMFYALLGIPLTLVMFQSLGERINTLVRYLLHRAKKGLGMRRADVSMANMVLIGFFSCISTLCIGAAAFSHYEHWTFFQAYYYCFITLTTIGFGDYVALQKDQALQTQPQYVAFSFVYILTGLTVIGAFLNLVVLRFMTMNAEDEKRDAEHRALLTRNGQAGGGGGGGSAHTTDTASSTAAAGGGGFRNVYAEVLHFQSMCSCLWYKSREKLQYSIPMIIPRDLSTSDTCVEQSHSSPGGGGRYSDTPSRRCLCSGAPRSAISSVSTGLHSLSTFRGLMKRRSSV
Description: TASK currents in transfected COS cells before and after AA. As to conditions: intact cell configuration.

In assay [4] the target is T1, TRAAK channel. Description: TRAAK currents in transfected COS cells, imposed voltage technique. Set-up: increase in the current induced by AA: dose or concentration left out as unconfirmed. The protocol: as §1, with “The maintenance potential was -80 mV. In FIG. 9b: dose-effect relation ofthe activation” for “For the functional study, the coding sequence”, “by AA is shown. In FIG. 9c: current-potential relations obtained as in FIG. 9a” for “was inserted”, “outside-out configuration are shown. […] In FIG. 9d: a histogram represents the coefficient of augmentation of the currents obtained after application of various fatty acids (10 μM). […] The coefficient of augmentation is indicated in each case. […] The current-potential relations were obtained as in FIG. 9a above” for “vector pEXO”, “after application ofriluzole (100 μM) on the transfected COS cells. […]” for “a complementary RNA (cRNA) was synthesized from this construction and injected in Xenopus oocytes.”

Assay [5] has as its target T1, TRAAK channel. The assay is described as above. As to conditions: concentration of 10 μM.
The mark [6] stands for this setting: riluzole 100 μM, transfected COS cells.

On to `Nc1ccncc1` [4-aminopyridine], for which the “sensitivity of TRAAK to potassium channel blocking agents” value (“sensitivity of TRAAK” for short) at TRAAK channel [1] (1 mM) is “insensitive”. As to `CCCCC/C=C\C/C=C\C/C=C\C/C=C\CCCC(=O)O` [AA, arachidonic acid], the “effect of AA on control cells” value in the assay with control cells (CD8) is reported as “no effect”. Besides, at TREK-1 channel [2], the “activation of TREK-1 by AA” value is reported as “activated”. For the same compound, the “activation of TREK-1 by internal AA” value at TREK-1 channel [3] (AA in the pipette, intact cell, dialyzed up to 30 minutes) is listed as “did not activate”. Moreover, the “effect of activation by AA on TWIK-1” value on TWIK-1 channel is “No effects of the same type”. For the same compound, at TASK channel, the “effect of activation by AA on TASK” value is “No effects of the same type”. Also, the “activation of the TRAAK channel by AA” value on TRAAK channel [4] (AA 10 μM (FIG. 9a), transfected COS cells, reversible, concentration dependent) is listed as “activated”. The “increase in the current induced by AA” value at TRAAK channel [4] (AA perfusion with mixture of inhibitors of AA metabolism, at +50 mV, n=3) is on record as 6.6±0.5 times. Regarding `CCCCC/C=C\C/C=C\C/C=C\C/C=C\CCCC(=O)OC` [AA-ME], the “activation of the TRAAK channel by fatty acids and derivatives” value (shortened to “activation … by fatty acids and derivatives”) on TRAAK channel [5] is “inactive”.

`CCCCC/C=C\C/C=C\C/C=C\C/C=C\CCCCO` [AA-OH]: the “activation … by fatty acids and derivatives” value on TRAAK channel [5] was “inactive”. `CCC=CCC=CCC=CCC=CCC=CCC=CCCC(=O)OC` [DOHA-ME]: the “activation … by fatty acids and derivatives” value at TRAAK channel [5] was “inactive”. With `Nc1nc2ccc(OC(F)(F)F)cc2s1` [Riluzole, riluzole], at TREK-1 channel [3] (setting [6]), the “effect of riluzole on the TREK-1 channel” value is listed as “opener”. On TRAAK channel [4] (setting [6]), the “effect of riluzole on the TRAAK channel” value is given as “opener”. For the compound `CCCCCCCCCCCCCCCCCCCC(=O)O` [arachidic, arachidic acid], the “activation … by fatty acids and derivatives” value on TRAAK channel [5] was “no effect”.

For `CC/C=C\C/C=C\C/C=C\C/C=C\C/C=C\C/C=C\CCC(=O)O` [docosohexaenoic, docosohexaenoic acid], the “activation … by fatty acids and derivatives” value at TRAAK channel [5] is “activation”.

As to `CCCCC/C=C\C/C=C\CCCCCCCC(=O)O` [linoleic, linoleic acid], at TRAAK channel [5], the “activation … by fatty acids and derivatives” value is given as “activation”.

On to `CCCCCCCC/C=C\CCCCCCCC(=O)O` [oleic, oleic acid], for which the “activation … by fatty acids and derivatives” value on TRAAK channel [5] was “activation”. With `CCCCCCCCCCCCCCCC(=O)O` [palmitic, palmitic acid], the “activation … by fatty acids and derivatives” value on TRAAK channel [5] is listed as “no effect”. `C=C[C@H]1C[N@@]2CC[C@H]1C[C@H]2[C@H](O)c1ccnc2ccc(OC)cc12` [quinine]: the “sensitivity of TRAAK” value on TRAAK channel [1] (100 mM) is “insensitive”. As to `CCCCCCCCCCCCCCCCCC(=O)O` [stearic, stearic acid], the “activation … by fatty acids and derivatives” value at TRAAK channel [5] is “no effect”. Regarding `CC[N+](CC)(CC)CC` [tetraethylammonium], at TRAAK channel [1] (1 mM), the “sensitivity of TRAAK” value is “insensitive”.

The values are drawn from patent US6942979B1, “Method for screening substances capable of modulating the activity of a TRAAK potassium channel” (Centre National de la Recherche Scientifique-CNRS, priority 1998, dated 2005).
